# Measured values as given in PMC2582943 (Antiviral Research, 2008).
# Values joined by “and” are separate entries in the source; they are usually repeats but may differ in a detail not shown here. Equal values may be shown once. “Also recorded” adds a separate entry of the source. Read-outs that look alike come from different tables or passages of the source. Peptide text beside a SMILES is read from it.
# Legend:
# Vero 76 cells = test: cells; type: cell-based, African green monkey
# SARS-CoV (strain Urbani) [1] = test: microbe, parasite or virus in culture; type: cell-based
# SARS-CoV (strain Urbani) [2] = test: microbe, parasite or virus in culture; type: cell-based; remark: listed apart in the source
# SARS-CoV CHUK-W1 strain [3] = test: microbe, parasite or virus in culture; type: cell-based
# mice = details: mouse, in vivo, ip; cited from earlier work
# [4] = test system: SARS-CoV Toronto-2 strain; test: microbe, parasite or virus in culture; type: cell-based
# BALB/c mice = details: mouse, in vivo, ip
# [5] = test system: SARS-CoV Frankfurt-1 strain; test: microbe, parasite or virus in culture; type: cell-based
# [6] = test system: SARS-CoV Frankfurt-1 strain; test: microbe, parasite or virus in culture; type: cell-based; remark: listed apart in the source
# SARS-CoV CHUK-W1 strain [7] = test: microbe, parasite or virus in culture; type: cell-based; remark: listed apart in the source
# [8] = test system: SARS-CoV Toronto-2 strain; test: microbe, parasite or virus in culture; type: cell-based; remark: listed apart in the source
# lungs = details: mouse, in vivo
# SARS-CoV (Urbani) = test system: SARS-CoV (Urbani); design: species or system BALB/c mice; details: mouse, in vivo
# [9] = Chlorocebus sabaeus, Vero 76, read-out: Neutral red uptake assay IC50
# [10] = Chlorocebus sabaeus, Vero 76, read-out: Virus yield reduction assay IC50
# [11] = Severe acute respiratory syndrome coronavirus, Vero 76, read-out: Virus yield reduction assay EC90
# [12] = Severe acute respiratory syndrome coronavirus, Vero 76, read-out: Neutral red uptake assay EC50
# [13] = Severe acute respiratory syndrome coronavirus, Vero 76, read-out: Neutral red uptake assay EC50 ± S.D.
# [14] = Severe acute respiratory syndrome coronavirus, Vero 76, read-out: VYR assay EC90 ± S.D.
# [15] = read-out: Neutral red uptake assay IC50
# [16] = read-out: Neutral red uptake assay IC50 ± S.D.
# [17] = read-out: Virus yield reduction assay IC50
# [18] = read-out: Neutral red uptake assay EC50 ± S.D.
# [19] = read-out: VYR assay EC90 ± S.D.
# [20] = read-out: Virus yield reduction assay EC90
# [21] = read-out: Neutral red uptake assay EC50
compound,measurement,setting,value
COc1ccc2c(c1)N(C[C@H](C)CN(C)C)c1ccccc1S2 [Methotrimeprazine],IC50,Vero 76 cells; [9],26 ± 10.8 µM
same,IC50,Vero 76 cells; [10],21 ± 5.4 µM
same,Virus yield reduction assay SI,SARS-CoV (strain Urbani) [1],1.7
same,EC90,SARS-CoV (strain Urbani) [1]; [11],12.3 ± 1.7 µM
same,Neutral red uptake assay SI,SARS-CoV (strain Urbani) [2],1.4
same,EC50,SARS-CoV (strain Urbani) [2]; [12],19 ± 8.1 µM
"CN(C)CCCN1c2ccccc2Sc2ccccc21 [Promazine, 10-(3-(dimethylamino)propyl)phenothiazine]",IC50,Vero 76 cells; [9],13.5 ± 6.2 µM
same,IC50,Vero 76 cells; [10],18.2 ± 14.6 µM
same,Neutral red uptake assay SI,SARS-CoV CHUK-W1 strain [3],2.2
same,EC50,SARS-CoV CHUK-W1 strain [3]; [13],15.6 ± 8.5 µM
same,LD50,mice,140 mg/(kg day)
same,Virus yield reduction assay SI,SARS-CoV (strain Urbani) [1],2.1
same,EC90,SARS-CoV (strain Urbani) [1]; [14],7.8 ± 3.1 µM
same,EC90,SARS-CoV (strain Urbani) [1]; [11],8.3 ± 2.8 µM
same,EC90,[4]; [14],20.7 ± 9.5 µM
same,Lethality,BALB/c mice; BALB/c,lethal to all mice by day 3
same,Lethality,BALB/c mice,somewhat lethal
same,Neutral red uptake assay SI,[5],1.6
same,EC50,[5]; [13],21 ± 15.4 µM
same,EC90,[6]; [14],11.6 ± 6.3 µM
same,EC90,SARS-CoV CHUK-W1 strain [7]; [14],16.5 ± 11.1 µM
same,Neutral red uptake assay SI,[8],1.5
same,EC50,[8]; [13],22.6 ± 12.8 µM
same,Virucidal activity (virus titer reduction after exposure),SARS-CoV,did not result in virus titer reduction
same,Neutral red uptake assay SI,SARS-CoV (strain Urbani) [2],1.2 and <1
same,EC50,SARS-CoV (strain Urbani) [2]; [12],10.8 ± 8.1 µM
same,EC50,SARS-CoV (strain Urbani) [2]; [13],14 ± 6.1 µM
same,Histopathological examination of lungs,lungs,no signs of pathology
same,Duration of virus replication in the lungs (in words),SARS-CoV (Urbani),prolonged virus replication to 14 days; also recorded: significantly prolonged
same,"Virus titer ± S.D., Day 3",SARS-CoV (Urbani),5.6 ± 1.0 Log10 CCID50/g and 5.6 ± 0.4 Log10 CCID50/g and 5.7 ± 0.3 Log10 CCID50/g and 5.6 ± 0.0 Log10 CCID50/g and 5.8 ± 0.4 Log10 CCID50/g and 6.0 ± 0.6 Log10 CCID50/g
same,"Virus titer ± S.D., Day 14",SARS-CoV (Urbani),3.4 ± 0.1 Log10 CCID50/g and 3.4 ± 0.0 Log10 CCID50/g
same,"Inhibition of virus replication in the lungs, therapeutic treatment (in words)",SARS-CoV (Urbani); ip,not efficacious
same,Reduction of viral replication in the lungs at day 3 (in words),SARS-CoV (Urbani); ip,did not reduce virus lung titers; also recorded: no significant reduction
same,"Virus titer ± S.D., Day 3",SARS-CoV (Urbani); ip,5.6 ± 0.0 Log10 CCID50/g and 6.0 ± 0.6 Log10 CCID50/g and 5.4 ± 0.1 Log10 CCID50/g
same,"Virus titer ± S.D., Day 7",SARS-CoV (Urbani); ip,<0.75 Log10 CCID50/g
CC(C)C[C@H](NC(=O)OCc1ccccc1)C(=O)N[C@@H](CC(C)C)C(=O)N[C@@H](Cc1ccc(O)cc1)C(=O)CF [Calpain Inhibitor IV] (HELM PEPTIDE1{[O=C(OCc1ccccc1)[*:2]].L.L.Y.[FC[*:1]]}$$$$V2.0),IC50,Vero 76 cells; [15],24.7 ± 7 µM
same,IC50,Vero 76 cells; [16],24.7 µM and 44 µM and 30 µM and 45 µM
same,IC50,Vero 76 cells; [17],33 ± 4.1 µM
same,EC50,SARS-CoV CHUK-W1 strain [3]; [18],2.6 ± 1.4 µM
same,Virus yield reduction assay SI,SARS-CoV (strain Urbani) [1],3.3
same,EC90,SARS-CoV (strain Urbani) [1]; [19],7.2 ± 0.9 µM
same,EC90,SARS-CoV (strain Urbani) [1]; [20],7.2 µM
same,EC90,[4]; [19],9.6 ± 3.1 µM
same,Neutral red uptake assay SI,[5],9.5
same,EC50,[5]; [18],4.6 ± 2.1 µM
same,EC90,[6]; [19],6.5 ± 3.6 µM
same,EC90,SARS-CoV CHUK-W1 strain [7]; [19],6.5 ± 3.6 µM
same,Neutral red uptake assay SI,[8],8.3
same,EC50,[8]; [18],5.4 ± 1.4 µM
same,Inhibition of virus replication in vitro (in words),SARS-CoV (strain Urbani) [2],inhibited virus replication as expected
same,Neutral red uptake assay SI,SARS-CoV (strain Urbani) [2],9.4
same,EC50,SARS-CoV (strain Urbani) [2]; [21],2.6 µM
same,EC50,SARS-CoV (strain Urbani) [2]; [18],2.6 ± 0.5 µM
CCOS(=O)(=O)[O-].CC[n+]1c2ccccc2nc2ccccc21 [Phenazine ethosulfate],IC50,Vero 76 cells; [15],6.6 ± 4.7 µM
same,IC50,Vero 76 cells; [17],6.6 ± 4.7 µM
same,Virus yield reduction assay SI,SARS-CoV (strain Urbani) [1],1.1
same,EC90,SARS-CoV (strain Urbani) [1]; [20],6.1 ± 4.3 µM
same,Neutral red uptake assay SI,SARS-CoV (strain Urbani) [2],1.3
same,EC50,SARS-CoV (strain Urbani) [2]; [21],5.2 ± 2.9 µM
CN(C)CC/C=C1/c2ccccc2Sc2ccc(Cl)cc21 [Chlorprothixene],IC50,"Vero 76 cells; Chlorocebus sabaeus, Vero 76, read-out: Neutral red uptake assay IC50 ± S.D.",13 ± 2 µM
same,IC50,Vero 76 cells; [10],18.3 ± 3.4 µM
same,IC50,Vero 76 cells; [16],18.5 µM and 15.8 µM and 16.7 µM
same,Neutral red uptake assay SI,SARS-CoV CHUK-W1 strain [3],1.5
same,EC50,SARS-CoV CHUK-W1 strain [3]; [13],12.6 ± 6.5 µM
same,Virus yield reduction assay SI,SARS-CoV (strain Urbani) [1],1.8
same,EC90,SARS-CoV (strain Urbani) [1]; [14],10.5 ± 5.2 µM
same,EC90,SARS-CoV (strain Urbani) [1]; [11],10.4 ± 4.2 µM
same,EC90,[4]; [14],13 ± 1 µM
same,Neutral red uptake assay SI,[5],1.2
same,EC50,[5]; [13],11.1 ± 3.4 µM
same,EC90,[6]; [14],12.3 ± 0.6 µM
same,EC90,SARS-CoV CHUK-W1 strain [7]; [14],12.1 ± 4.2 µM
same,Neutral red uptake assay SI,[8],1.2
same,EC50,[8]; [13],12.9 ± 3.6 µM
same,Neutral red uptake assay SI,SARS-CoV (strain Urbani) [2],1.9 and 1.4
same,EC50,SARS-CoV (strain Urbani) [2]; [12],9.5 ± 5.7 µM
same,EC50,SARS-CoV (strain Urbani) [2]; [13],12 ± 3.5 µM
CCN(CC)C(C)CN1c2ccccc2Sc2ccccc21 (stereo not shown) [Ethopropazine],IC50,Vero 76 cells; [9],61.3 ± 34.7 µM
same,IC50,Vero 76 cells; [10],61.3 ± 34.7 µM
same,Virus yield reduction assay SI,SARS-CoV (strain Urbani) [1],1.5
same,EC90,SARS-CoV (strain Urbani) [1]; [11],42 µM
same,Neutral red uptake assay SI,SARS-CoV (strain Urbani) [2],2.0
same,EC50,SARS-CoV (strain Urbani) [2]; [12],30.5 ± 27.5 µM
CN(C)CCCN1c2ccccc2Sc2ccc(C(F)(F)F)cc21.Cl [Trifluopromazine·HCl],IC50,Vero 76 cells; [15],18 ± 5.6 µM
same,IC50,Vero 76 cells; [17],18 ± 5.6 µM
same,Virus yield reduction assay SI,SARS-CoV (strain Urbani) [1],1.4
same,EC90,SARS-CoV (strain Urbani) [1]; [20],12.8 ± 1.9 µM
same,Neutral red uptake assay SI,SARS-CoV (strain Urbani) [2],1.4
same,EC50,SARS-CoV (strain Urbani) [2]; [21],13.3 ± 5.8 µM
c1ccc2c(c1)Nc1ccccc1S2 [Phenothiazine],IC50,Vero 76 cells; [9],56.5 ± 61.5 µM
same,Neutral red uptake assay SI,SARS-CoV (strain Urbani) [2],2.6
